# Measured values as given in patent US20230392116A1, “METHOD FOR DIFFERENTIATING CORNEAL ENDOTHELIAL CELL-LIKE CELLS FROM PLURIPOTENT STEM CELLS” (StemSight Oy, priority 2020, published 2023).
# Test system: human pluripotent stem cells (hPSC)
# Assay: Differentiation of human pluripotent stem cells (hPSC) into corneal endothelial cell (CEC)-like cells
# Format: cell-based
# Conditions: for emergence of NCC markers: SB431542 and CHIR99021 as differentiation induction agents; for time at which NCC markers appeared: culture medium with about 10 μM SB431542 and about 4 μM CHIR99021 together
# Procedure: Embryonic (hESC) and induced pluripotent stem cells (iPSC) were used to generate CECs. Briefly, hPSCs were seeded on Laminin 521 (Biolamina) coated CellBind 6/12 well-plates (Corning) in 10 000-60 000 cell/cm 2 cell density. The cells were cultured in Essential 8 Flex medium (Thermo Fisher) for 24h. On day 1, Essential 8 flex medium was replaced with an induction medium supplemented with 10 μM SB431542 (Stemcell), 4 μM CHIR99021 (Stemcell) and 10 μM retinoic acid (RA, Sigma-Aldrich). Base of the induction medium consisted of KO-DMEM, 15% Knock-out serum replacement, 2 mM GlutaMax-I, 0.1 mM 2-mercaptoethanol (all from Thermo Fisher), 1% Non-essential Amino Acids, 50 U/ml Penicillin/Streptomycin. […] After day 9, CEC-like cells were formed, and harvested for analyses.
# The hPSC-derived CECs were analyzed by immunocytochemistry. Briefly, the cells were fixed with 1 or 4% paraformaldehyde (PFA, Sigma-Aldrich) for 15 minutes. Next, the cells were permeabilized for 10 minutes with 0.1% Triton X-100 (Sigma-Aldrich) followed by blocking with 3% bovine serum albumin (BSA) for 1 hour. Then the cells were first incubated with 1:400 zona occludens-1 (ZO-1; Thermo Fisher), 1:200 alpha 1 sodium potassium ATPase (Na+/K+-ATPase, Abcam) and 1:400 CD166 (BD Biosciences) primary antibodies overnight at 4° C. The cells were next treated with 1:800 Donkey anti-Rabbit IgG Secondary Antibody, Alexa Fluor 488 (Thermo Fisher) against ZO-1; 1:800 Donkey anti-Mouse IgG Secondary Antibody, Alexa Fluor 568 (Thermo Fisher) against Na+/K+-ATPase and CD166; and 1:800 Donkey anti-Goat IgG Secondary Antibody, Alexa Fluor 568 (Thermo Fisher) against OCT-3/4. […] The images of mounted cells were captured using a fluorescence microscope (Olympus IX51; Olympus, Tokyo, Japan) and prepared using image editing software (Adobe Photoshop CC 2018; Adobe Systems) […]
# Total RNA was extracted from undifferentiated hPSCs (d0), and from 3 time points during the time of hCEC induction (d3, d6 and d9) with Rneasy Minikit Plus (Qiagen). RNA concentration of each sample was determined using NanoDrop-1000 spectrophotometer (NanoDrop Technologies). […] The resulting cDNA samples were analyzed with qPCR using sequence-specific TaqMan Gene Expression Assays (Thermo Fisher) for OCT4 (Hs00999632_g1), PITX2 (Hs01553179_m1), AQP1 (Hs01028916_m1), SLC4A4 (Hs00186798_m1), and FOXC1 (Hs00559473_s1). […] Results were analyzed with the 7300 System SDS Software (Applied Biosystems) and Microsoft Excel. Based on the cycle threshold (CT) values given by the software, the relative quantification of each gene was calculated by applying the […] (Livak and Schmittgen, 2001). Results were normalized to GAPDH (Hs99999905_m1), with the undifferentiated hPSCs as the calibrator to determine the relative quantities of gene expression in each sample.
Structure (SMILES),emergence of NCC markers,time at which NCC markers appeared
Cc1c[nH]c(-c2cnc(NCCNc3ccc(C#N)cn3)nc2-c2ccc(Cl)cc2Cl)n1 [CHIR99021],contributed to emergence of NCC markers,~3 days
"NC(=O)c1ccc(-c2nc(-c3ccc4c(c3)OCO4)c(-c3ccccn3)[nH]2)cc1 [SB431542, 4-[4-(1,3-Benzodioxol-5-yl)-5-(2-pyridinyl)-1H-imidazol-2-yl]-benzamide]",contributed to emergence of NCC markers,~3 days
